Data set [1] in a line: Pharmacokinetic studies in rats (single i.v. and p.o. dose). In kind it is in vivo. To be noted: plasma.
Data set [2] is described as follows: Pharmacokinetic studies in dogs (single i.v. and p.o. dose). In kind it is in vivo. To be noted: male, Beagle, dog, plasma, iv, 50 mg/kg. The protocol: Separation was performed on a Phenomenex Kinetex C18 column (2.1 mm × 50 mm, 2.6 µm) with 0.1 vol.% formic acid in water (A) and 0.1 vol.% formic acid in acetonitrile (B) as the mobile phase. The samples were analyzed in a linear gradient elution at a flow rate of 0.45 mL/min at 40 °C: starting with 5 vol.% B for 2 min, ramping to 95 vol.% B in 1 min, maintaining for 3 min and then returning to the initial condition. The injection volume was 5 µL. Ion source parameters were optimized as follows: capillary voltage, 3500 V; drying gas, 12 L/min and 345 °C; nebulizer gas, 35 psi; sheath gas, 11 L/min and 400 °C. Mass spectra were acquired in negative multiple reaction monitoring (MRM) mode at m/z (299 > 283) (F, 100 V; CE, 25 eV) and (253 > 143) (F, 100 V; CE, 30 eV) for SP-8356 and HSDH, respectively. The data were analyzed using Agilent MassHunter Quantitative Analysis software (version B.05.00). The retention times of SP-8356 and HSDH were (4.10 and 4.17) min, respectively. The linear calibration range of SP-8356 was (31.25–4000) ng/mL (r^2 > 0.99). The precision and accuracy of the assay were evaluated using quality control samples prepared in triplicate at (30, 300 and 3000) ng/mL as described in previous report. Both the accuracy and precision of this analytical method were within the acceptable ranges. Pharmacokinetic parameters were calculated by noncompartmental analysis using PKSolver.
Animal studies were conducted at KNOTUS Co., Ltd. (IACUC Approval No.: KNOTUS IACUC 18-KE-363; Approval date: 24 October 2018). SP-8356 dissolved in DMSO/ethanol/Solutol HS 15/deionized water (5/3/40/52 vol.%) was dosed i.v. or p.o. at 50 mg/kg (n = 6/dose group) to male Beagle dogs (11 months old; (11.6–12.4) kg; OrientBio Inc., Gyeonggi, Republic of Korea). Blood samples were collected at selected time points for 24 h post-dosing through jugular vein cannula into EDTA-treated tubes containing AA (final concentration: 0.4 w/v%). The blood samples were then centrifuged at 3000 rpm at 4 °C for 20 min. The separated plasma samples were kept frozen at −80 °C, until analysis. Sample and data analysis methods were the same as those described in Section 4.2.

Bounds are passed on as bounds.

For orientation: AUC(0-inf) means total exposure, with the tail of the curve extrapolated. One may read the AUC(0-t) as the area under the concentration-time curve up to a stated or last time point. Usually half-life stands for how long it takes for the measured level to halve. A lower half-life goes with rapid decline. Take `COc1cc(/C=C/C2=CC(=O)[C@H]3C[C@@H]2C3(C)C)cc(O)c1O` [SP-8356, (1S,5R)-4-((E)-3,4-dihydroxy-5-methoxystryryl)-6,6-dimethylbicylco[3.1.1]hept-3-en-2-one]: the Vd in data set [1] (male, SD (rat), Beagle (dog), iv, range over rats and dogs, read-out: mean volumes of distribution during terminal phase (Vz) and at steady state (Vss)) was 1.3 to 1.9 L/kg; in data set [1] (male, SD, rat, iv, 20 mg/kg, read-out: Vss), 1.6 ± 0.5 L/kg; in data set [1] (male, SD, rat, iv, 20 mg/kg, read-out: Vz) it was 1.9 ± 0.6 L/kg; in data set [2] (read-out: Vss), 1.3 ± 0.3 L/kg; in data set [2] (read-out: Vz), 1.8 ± 0.3 L/kg. The AUC(0-inf) in data set [1] (male, SD, iv, rat, 20 mg/kg) worked out at 1030 ± 314 ng·h/mL; in data set [2], 12400 ng·h/mL. Besides, the AUC(0-t) in data set [1] (male, SD, iv, rat, 20 mg/kg) came to 981 ± 314 ng·h/mL; in data set [2] it was 12400 ng·h/mL. Besides, the clearance in data set [1] (male, SD, iv, rat, 20 mg/kg) is 350 mL/min/kg; in data set [2], 66.7 mL/min/kg. The compound also gave a half-life in data set [1] (male, SD, rat, iv, 20 mg/kg) of under 6 min. Moreover, the t1/2 in data set [1] (rat, 20 mg/kg) worked out at 4.2 ± 1.2 min.

Source of the values: article PMC7221793, “Metabolism and Pharmacokinetics of SP-8356, a Novel (1S)-(−)-Verbenone Derivative, in Rats and Dogs and Its Implications in Humans” (Molecules, 2020).
